Measured values: the NIST ThermoML archive (doi:10.1007/s10765-016-2150-1)

Settings: Liquid, Oscillating viscometer

O=[N+]([O-])[O-].[Li+] [lithium nitrate]
Settings	viscosity [mPa·s]
544.9 K	5.15
554.5 K	4.457
571.7 K	4.195
592.1 K	3.854
595.9 K	3.618
597 K	3.72
601.3 K	3.549
603.3 K	3.373
619.2 K	3.075
623.2 K	3.024
627.2 K	3.04
662.7 K	2.448
688.8 K	2.169
689.2 K	2.094
